Measurements published in the supplement of paper PMC4862054.

How the values were obtained:
Conditions in all cases: incubation time: 72 h
[1] = test system: CAL-120; experiment: normalised response (% of control), CellTiter-Glo; higher = more viable cells (100 = DMSO, 0 = benzethonium chloride kill control)
Method: (§1)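 DSRT, 72 h incubation, CellTox Green / CellTiter-Glo readout. Signal is normalised to DMSO and benzethonium chloride controls. Value is the normalised response at the highest dose.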

[2] = test system: CAL-148; experiment: as above
Method: as §1

[3] = test system: CAL-51; experiment: as above
Method: as §1

[4] = test system: DU-4475; experiment: as above
Method: as §1

[5] = test system: HCC1143; experiment: as above
Method: as §1

[6] = test system: HCC1599; experiment: as above
Method: as §1

[7] = test system: HCC1937; experiment: as above
Method: as §1

[8] = test system: HDQ-P1; experiment: as above
Method: as §1

[9] = test system: Hs578T; experiment: as above
Method: as §1

[10] = test system: MDA-MB-231; experiment: as above
Method: as §1

[11] = test system: MDA-MB-453; experiment: as above
Method: as §1

[12] = test system: MFM-223; experiment: as above
Method: as §1

[13] = test system: SK-BR-3; experiment: as above
Method: as §1

[14] = test system: CAL-148; experiment: drug sensitivity score (DSS), CellTox Green (DSS (AUC-based score)); higher = stronger drug effect (viability inhibition or cytotoxicity); extreme values may be limits of the assay
Method in brief: (§2)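 The drug sensitivity score reflects the area under a fitted dose-response curve. To obtain it, breast cancer cells in 20 µl suspension were seeded into 384-well plates containing compound at 5 concentrations, 10-fold apart over a compound-specific 10,000-fold range, and incubated 72 h. CellTox Green fluorescence (485/520 nm) was read first and CellTiter-Glo luminescence second, after 10 min at room temperature. Each plate was normalised to 0.1 % DMSO and a positive kill control.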

[15] = test system: MFM-223; experiment: as above
Method in brief: as §2

SMILES | normalised response [1] | normalised response [2] | normalised response [3] | normalised response [4] | normalised response [5] | normalised response [6] | normalised response [7] | normalised response [8] | normalised response [9] | normalised response [10] | normalised response [11] | normalised response [12] | normalised response [13] | drug sensitivity score [14] | drug sensitivity score [15]
COc1cc(Nc2c(C#N)cnc3cc(OCCCN4CCN(C)CC4)c(OC)cc23)c(Cl)cc1Cl [Bosutinib] (10000 nM) | 43.4% | 33.3% | 25% | 70% | 46.6% | 13.5% | 5.6% | 9.28% | 48.5% | 0.86% | 6.11% | 41.2% | 1.81% |  | 
Cn1cc(C2=C(c3cn(C4CCN(Cc5ccccn5)CC4)c4ccccc34)C(=O)NC2=O)c2ccccc21 [Enzastaurin] (10000 nM) | 91.1% | 107% | 82.1% | 105% | 96.5% | 78.2% | 101% | 70.1% | 91% | 102% | 101% | 103% | 85.6% |  | 
CC1(C)CCC(c2ccc(Cl)cc2)=C(CN2CCN(c3ccc(C(=O)NS(=O)(=O)c4ccc(N[C@H](CCN5CCOCC5)CSc5ccccc5)c(S(=O)(=O)C(F)(F)F)c4)cc3)CC2)C1 [Navitoclax] (10000 nM) | 37.4% | 72.4% | 74.5% | 72.4% | 77.8% | 93.1% | 56.9% | 66.8% | 79.3% | 16.1% | 60.3% | 55.6% | 73.2% |  | 
CC[C@H](CO)Nc1nc(NCc2ccccc2)c2ncn(C(C)C)c2n1 [Seliciclib] |  |  |  |  |  |  |  |  |  |  |  |  |  | 0 | 1.03
O=[N+]([O-])c1ccc2c(c1)S(=O)(=O)C=C2 [Stattic] |  |  |  |  |  |  |  |  |  |  |  |  |  | 9.88 | 16.3
CNC(=O)c1ccccc1Sc1ccc2c(/C=C/c3ccccn3)n[nH]c2c1 [Axitinib] (10000 nM) | 75.8% | 67% | 38.6% | 76% | 79% | 69% | 79.2% | 77.8% | 61.4% | 94.5% | 113% | 49.3% | 77% |  | 
CC(C)C[C@H](NC(=O)[C@@H](COC(C)(C)C)NC(=O)[C@H](Cc1ccc(O)cc1)NC(=O)[C@H](CO)NC(=O)[C@H](Cc1c[nH]c2ccccc12)NC(=O)[C@H](Cc1cnc[nH]1)NC(=O)[C@@H]1CCC(=O)N1)C(=O)N[C@@H](CCCNC(=N)N)C(=O)N1CCC[C@H]1C(=O)NNC(N)=O [Goserelin] (10000 nM) | 94.8% | 91.2% | 113% | 97.1% | 101% | 97.5% | 96% | 101% | 96.5% | 101% | 101% | 98.9% | 102% |  | 
CO[C@@]12[C@H](COC(N)=O)C3=C(C(=O)C(C)=C(N)C3=O)N1C[C@@H]1N[C@@H]12 [Mitomycin C] (10000 nM) | 88.1% | 51% | 5.75% | 69% | 71% | 57.4% | 73.3% | 84.1% | 91.1% | 82.5% | 85.8% | 86.5% | 58.4% |  | 
C=CCn1c(=O)c2cnc(Nc3ccc(N4CCN(C)CC4)cc3)nc2n1-c1cccc(C(C)(C)O)n1 [MK1775] (10000 nM) | 22.8% | 9.04% | 8.21% | 11.9% | 17.5% | 4.65% | 28.3% | 17.4% | 22% | 23.7% | 44% | 36.1% | 8.92% |  | 
Cc1cn(-c2cc(NC(=O)c3ccc(C)c(Nc4nccc(-c5cccnc5)n4)c3)cc(C(F)(F)F)c2)cn1 [Nilotinib] (10000 nM) | 103% | 98% | 86.3% | 102% | 93% | 119% | 96.8% | 105% | 97.1% | 92.9% | 102% | 97.2% | 99.4% |  | 
CCNC(=O)CCC/C=C\C[C@@H]1[C@@H](/C=C/[C@@H](O)CCc2ccccc2)[C@H](O)C[C@@H]1O [Bimatoprost] (5500 nM) | 95.8% | 88.3% | 160% | 96.7% | 94.8% | 89.5% | 91.9% | 91.7% | 101% | 99.5% | 91.2% | 88.2% | 83.8% |  | 
C=CCN(/C=C1/C(=O)O[C@H](COC)[C@@]2(C)C1=C(O)C(=O)C1=C2[C@H](OC(C)=O)C[C@]2(C)C(=O)CC[C@@H]12)CC=C [Sonolisib] |  |  |  |  |  |  |  |  |  |  |  |  |  | 0 | 0
CCN(CC)CCCC(C)Nc1ccnc2cc(Cl)ccc12 (stereo unspecified) [Chloroquine] |  |  |  |  |  |  |  |  |  |  |  |  |  | 11.8 | 9.2
COc1ccc(S(=O)(=O)Nc2cccnc2Nc2ccc(O)cc2)cc1 [ABT-751] (10000 nM) | 61.1% | 41.2% | 25.2% | 43.6% | 55.5% | 16.5% | 71.3% | 70.1% | 17.6% | 46.6% | 50.9% | 38.4% | 12.3% |  | 
CCNC(=O)CCC/C=C\C[C@@H]1[C@@H](/C=C/[C@@H](O)CCc2ccccc2)[C@H](O)C[C@@H]1O [Bimatoprost] |  |  |  |  |  |  |  |  |  |  |  |  |  | 0 | 0
CN(C)C(=N)NC(=N)N [Metformin] |  |  |  |  |  |  |  |  |  |  |  |  |  | 0 | 0
C/C(=C\c1csc(C)n1)[C@@H]1C[C@@H]2O[C@]2(C)CCC[C@H](C)[C@H](O)[C@@H](C)C(=O)C(C)(C)[C@@H](O)CC(=O)N1 [Ixabepilone] (1000 nM) | 98% | 107% | 23.7% | 100% | 97.6% | 115% | 104% | 99.1% | 99% | 73.8% | 106% | 101% | 104% |  | 
Nc1ccn([C@@H]2O[C@H](CO)[C@@H](O)C2(F)F)c(=O)n1 [Gemcitabine] (1000 nM) | 73% | 51% | 34% | 78.5% | 38.9% | 41.4% | 85.8% | 82.8% | 74.9% | 79.5% | 74.5% | 97.7% | 42.7% |  | 
O=C(CCCCCCC(=O)Nc1ccccc1)NO [Vorinostat] (10000 nM) | 46.1% | 29.6% | 22.8% | 27.8% | 24.4% | 8.35% | 43.6% | 64.3% | 34% | 15% | 3.2% | 31.5% | 14.1% |  | 
CC(C)(C)NC(=O)[C@H]1CC[C@H]2[C@@H]3CC[C@H]4NC(=O)C=C[C@]4(C)[C@H]3CC[C@]12C [Finasteride] (10000 nM) | 99.7% | 105% | 91.7% | 103% | 96.6% | 97% | 97.8% | 95.7% | 99.9% | 102% | 93.4% | 93.4% | 94.4% |  | 
CC(O)(CS(=O)(=O)c1ccc(F)cc1)C(=O)Nc1ccc(C#N)c(C(F)(F)F)c1 (stereo unspecified) [Bicalutamide] (10000 nM) | 105% | 107% | 92.8% | 98.4% | 104% | 95.5% | 93.8% | 96.4% | 95.6% | 106% | 88.5% | 101% | 103% |  | 
CN[C@@H](C)C(=O)N[C@H]1CN(C(=O)CC(C)C)CC[C@H]2CC[C@@H](C(=O)NC(c3ccccc3)c3ccccc3)N2C1=O [AT-406] |  |  |  |  |  |  |  |  |  |  |  |  |  |  | 0
CO[C@@H]1[C@H](N(C)C(=O)c2ccccc2)C[C@H]2O[C@]1(C)n1c3ccccc3c3c4c(c5c6ccccc6n2c5c31)C(=O)NC4 [Midostaurin] (10000 nM) | 46.2% | 88.1% | 11.5% | 34.1% | 45.9% | 102% | 50.1% | 54.4% | 16.8% | 40.7% | 110% | 66.5% | 45.2% |  | 
Cc1cc(Nc2nc(N[C@@H](C)c3ncc(F)cn3)ncc2Cl)[nH]n1 [AZD1480] (1000 nM) | 70% | 87.3% | 110% | 81.7% | 92.7% | 104% | 96% | 93.6% | 82% | 78.2% | 72.4% | 50.8% | 90.5% |  | 
CC(=O)[C@]1(O)Cc2c(O)c3c(c(O)c2[C@@H](O[C@H]2C[C@H](N)[C@H](O)[C@H](C)O2)C1)C(=O)c1ccccc1C3=O [Idarubicin] (1000 nM) | 30% | 0.6% | 0.98% | 0.36% | 16.6% | 7.7% | 30.1% | 39% | 13.1% | 24.7% | 31.2% | 9.33% | 7.62% |  | 
CCNC(=O)c1noc(-c2cc(C(C)C)c(O)cc2O)c1-c1ccc(CN2CCOCC2)cc1 [NVP-AUY922] (1000 nM) | 47.9% | 29.3% | 13.5% | -0.14% | 38% | 77% | 28.3% | 23.6% | 35.6% | 24.9% | 26.3% | 36.3% | 39.4% |  | 
CC(C)C[C@H](NC(=O)[C@@H](COC(C)(C)C)NC(=O)[C@H](Cc1ccc(O)cc1)NC(=O)[C@H](CO)NC(=O)[C@H](Cc1c[nH]c2ccccc12)NC(=O)[C@H](Cc1cnc[nH]1)NC(=O)[C@@H]1CCC(=O)N1)C(=O)N[C@@H](CCCNC(=N)N)C(=O)N1CCC[C@H]1C(=O)NNC(N)=O [Goserelin] |  |  |  |  |  |  |  |  |  |  |  |  |  | 0 | 
